Data reported in US8778919B2, “Cyclic anilino—pyridinotriazines” (Janssen Pharmaceutica NV, priority 2005, dated 2014).

What was measured:
[1] = biological target: GSK-3β (Homo sapiens, UniProt P49841); assay: GSK-3 kinase assay (C1), GSK-3β; format: biochemical; settings: 1 μM ATP; for IC50: read-out: C1 Score β
Procedure, shortened: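 Radiometric SPA at room temperature in 25 mM Tris pH 7.4 with 10 mM MgCl2, 1 mM DTT, 5.7 ng/μl GSK-3β or 0.25 ng/μl GSK-3α, 5 μM biotinylated CREB peptide and 1 μM ATP plus ^33P-ATP. Stopped after 1 h; IC50 from dose-response versus no-compound control, reported as pIC50 score bands.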

[2] = biological target: CDK6/cyclinD3 human (Homo sapiens, UniProt Q00534); assay: Kinase profiling C3.7 CDK6/cyclinD3 human; format: biochemical; settings: CDK6/cyclinD3, test concentration of 10^−6 M
Description: The in vitro inhibition of a panel of kinases was assessed using either the glass-fiber filter technology as described by Davies, S. P. et al., Biochem J. (2000), 351; p. 95-105. In the glass-fiber filter technology the activity of the kinase of interest is measured using an appropriate substrate that is incubated with the aforementioned kinase protein in the presence of (^33P) radiolabeled ATP. (^33P) Phosporylation of the substrate is subsequently measured as radioactivity bound on a glassfiber-filter.
All kinases are pre-diluted to a 10× working concentration prior to addition into the assay. The composition of the dilution buffer for each kinase is detailed below.
All substrates are dissolved and diluted to working stocks in de-ionised water, apart from histone H1 that is stored in 10× working stock in 20 mM MOPS pH 7.4.
In a final reaction volume of 25 μl, CDK6/cyclinD3 human (5-10 mU) is incubated with 8 mM MOPS pH 7.0, 0.2 mM EDTA, 0.1 mg/ml histone H1, 10 mM MgAcetate and [γ-^33P-ATP] (specific activity approx. 500 cpm/pmol, concentration as required). The reaction is initiated by the addition of the MgATP mix. After incubation for 40 minutes at room temperature, the reaction is stopped by the addition of 5 μl of a 3% phosphoric acid solution. 10 μl of the reaction is then spotted onto a P30 filtermat and washed three times for 5 minutes in 75 mM phosphoric acid and once in methanol prior to drying and scintillation counting.

GSK-3β, sequence (P49841 whole entry, species assumed): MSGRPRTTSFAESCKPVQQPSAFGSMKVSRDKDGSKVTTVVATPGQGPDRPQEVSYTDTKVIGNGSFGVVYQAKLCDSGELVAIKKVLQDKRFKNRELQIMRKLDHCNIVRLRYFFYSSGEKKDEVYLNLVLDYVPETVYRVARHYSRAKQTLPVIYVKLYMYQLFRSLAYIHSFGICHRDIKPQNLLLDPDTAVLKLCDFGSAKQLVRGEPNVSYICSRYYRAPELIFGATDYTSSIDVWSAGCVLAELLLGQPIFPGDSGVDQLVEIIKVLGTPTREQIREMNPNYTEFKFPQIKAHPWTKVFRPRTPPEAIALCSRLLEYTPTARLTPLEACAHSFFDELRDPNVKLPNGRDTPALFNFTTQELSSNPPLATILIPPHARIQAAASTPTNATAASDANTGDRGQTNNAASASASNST
CDK6/cyclinD3 human, sequence (Q00534 whole entry): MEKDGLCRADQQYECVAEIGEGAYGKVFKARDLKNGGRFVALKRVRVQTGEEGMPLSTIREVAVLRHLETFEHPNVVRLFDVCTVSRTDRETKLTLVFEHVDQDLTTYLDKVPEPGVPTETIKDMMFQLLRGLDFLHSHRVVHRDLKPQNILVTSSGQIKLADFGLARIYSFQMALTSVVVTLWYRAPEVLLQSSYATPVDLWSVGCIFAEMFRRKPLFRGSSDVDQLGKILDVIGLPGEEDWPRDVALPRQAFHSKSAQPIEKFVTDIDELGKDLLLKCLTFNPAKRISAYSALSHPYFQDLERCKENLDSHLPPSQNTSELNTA
CDK6/cyclinD3 human, sequence (P30281 whole entry partner): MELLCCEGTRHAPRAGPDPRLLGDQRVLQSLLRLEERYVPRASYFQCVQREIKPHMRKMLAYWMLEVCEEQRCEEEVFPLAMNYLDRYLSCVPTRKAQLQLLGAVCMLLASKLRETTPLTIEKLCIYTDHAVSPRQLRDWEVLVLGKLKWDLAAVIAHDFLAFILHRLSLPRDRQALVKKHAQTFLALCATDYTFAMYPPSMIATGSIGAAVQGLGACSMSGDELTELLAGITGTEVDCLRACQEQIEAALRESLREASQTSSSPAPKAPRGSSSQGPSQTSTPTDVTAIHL

Row | SMILES | melting point | IC50 [1] | C3.7 score [2] | C1 Score β [1]
1 | CN1CC(=O)NCC#Cc2cc(ccn2)-c2ncnc(n2)Nc2cccc(c2)C1 [Compound 1] | 267.5 to 269.3 °C | < 10 nM | 4 (Score 4 = >80% inhibition) | 
2 | CN1CC(=O)NC/C(Cl)=C/c2cc(ccn2)-c2ncnc(n2)Nc2cccc(c2)C1 [Compound 2] |  | < 10 nM | 4 (Score 4 = >80% inhibition) | 
3 | CN1CCCc2cc(ccn2)-c2ncnc(n2)Nc2cccc(c2)CNC(=O)C1 [Compound 7] | 201.9 to 203.3 °C | < 10 nM | 1 (Score 1 = 10-30% inhibition) | 
4 | CN1CCN(CCN2CCC(=O)NCCCc3cc(ccn3)-c3ncnc(n3)Nc3cccc(c3)C2)CC1 [Compound 11] |  | 100 to 1000 nM | 1 (Score 1 = 10-30% inhibition) | 
5 | O=C1NCCCc2cc(ccn2)-c2ncnc(n2)Nc2cccc(c2)CN2CCCC12 (stereo not drawn) [Compound 12] |  | 100 to 1000 nM | 1 (Score 1 = 10-30% inhibition) | 
6 | CN1CCCC(=O)NCCCc2cc(ccn2)-c2ncnc(n2)Nc2cccc(c2)C1 [Compound 13] |  | 10 to 100 nM | 1 (Score 1 = 10-30% inhibition) | 
7 | O=C1NCCCc2cc(ccn2)-c2ncnc(n2)Nc2cccc(c2)CN2C[C@H](O)C[C@@H]12 [Compound 14] |  | 10 to 100 nM | 1 (Score 1 = 10-30% inhibition) | 
8 | O=C1NCCCc2cc(ccn2)-c2ncnc(n2)Nc2cccc(c2)CN2CCCC1C2 (stereo not drawn) [Compound 15] |  | 10 to 100 nM | 1 (Score 1 = 10-30% inhibition) | 
9 | CCN1CCCc2cc(ccn2)-c2ncnc(n2)Nc2cccc(c2)CCNC(=O)C1 [Compound 30] |  | < 10 nM | 1 (Score 1 = 10-30% inhibition) | 
10 | CN1CC(=O)NCCCc2cc(ccn2)-c2ncnc(n2)Nc2cc(Cl)cc(c2)C1 [Compound 33] |  | < 10 nM | 3 (Score 3 = 60-80% inhibition) | 
11 | CCN1CC(=O)NCCCc2cc(ccn2)-c2ncnc(n2)Nc2cc(Cl)cc(c2)C1 [Compound 34] |  | < 10 nM | 2 (Score 2 = 30-60% inhibition) | 
12 | O=C1NCCCc2cccc(c2)-c2ncnc(n2)Nc2cccc(c2)CN[C@H]1CO [Compound 46] |  |  | 1 (Score 1 = 10-30% inhibition) | 
13 | CCN1CC(=O)NCCCc2cccc(c2)-c2ncnc(n2)Nc2cccc(c2)C1 [Compound 54] |  |  | 1 (Score 1 = 10-30% inhibition) | 
14 | O=C1NCCCc2cc(ccc2F)-c2ncnc(n2)Nc2cc(Cl)cc(c2)CN[C@H]1CO [Compound 71] |  |  | 2 (Score 2 = 30-60% inhibition) | 
15 | O=C1NCCCc2cncc(c2)-c2ncnc(n2)Nc2cccc(c2)CN[C@H]1CO [Compound 81] |  |  | 1 (Score 1 = 10-30% inhibition) | 

Further lines, results first:

Row | melting point | IC50 [1] | C3.7 score [2] | C1 Score β [1] | SMILES
16 |  | 10 to 100 nM | 2 (Score 2 = 30-60% inhibition) |  | CN1CCC(=O)NCCCc2cc(ccn2)-c2ncnc(n2)Nc2cccc(c2)C1 [Compound 3]
17 |  |  | 2 (Score 2 = 30-60% inhibition) | 4 (Score 4=pIC50 value>8) | CN1CC(=O)NCCCc2cc(ccn2)-c2ncnc(n2)Nc2cccc(c2)C1 [Compound 8]
18 |  |  | 1 (Score 1 = 10-30% inhibition) | 4 (Score 4=pIC50 value>8) | O=C1CN2CCN(CC2)Cc2cccc(c2)Nc2ncnc(n2)-c2ccnc(c2)CCCN1 [Compound 9]
19 |  | < 10 nM | 4 (Score 4 = >80% inhibition) |  | CN1CC(=O)NCCCc2cc(ccn2)-c2ncnc(n2)Nc2cccc(c2)C1 [Compound 10]
20 |  | 10 to 100 nM | 3 (Score 3 = 60-80% inhibition) |  | O=C1CCN2CCN(CC2)Cc2cccc(c2)Nc2ncnc(n2)-c2ccnc(c2)CCCN1 [Compound 35]
21 |  | < 10 nM | 1 (Score 1 = 10-30% inhibition) |  | O=C1CN2CCN(CC2)Cc2cccc(c2)Nc2ncnc(n2)-c2ccnc(c2)CCCN1 [Compound 36]
22 |  | < 10 nM | 1 (Score 1 = 10-30% inhibition) |  | O=C1CN2CCN(CC2)Cc2cc(Cl)cc(c2)Nc2ncnc(n2)-c2ccnc(c2)CCCN1 [Compound 41]
